Measurements taken from patent US7351731B2, “Azole derivatives and methods for making the same” (Board of Governors for Higher Education, State of Rhode …, priority 2005, dated 2008).
Values after ≈ are worked out from the molar mass of the structure shown.

Assays:
C. albicans ATCC 14053 [1] = test: MIC microdilution susceptibility testing, C. albicans in RPMI; assay type: cell-based, Candida albicans; details: for MIC: Candida albicans
Description: (§1) Microorganisnis. […] Stock cultures were kept on Sabouraud dextrose agar (SDA; Becton-Dickinson and Co., Sparks, Md.). Subcultures were prepared on SDA at 35-37° C. Suspension cultures were prepared by inoculation of single colonies in 7 ml of normal saline solution.
(§2) Test compounds were dissolved in DMSO (0.56 mg/ml) and stored at 0° C. Working dilutions were made in RPMI or SDB medium. […] The final maximum concentration of DMSO in the assays was 5% (v/v).
(§3) Microdilutions for control experiments with C. albicans, A. niger, and C. neoformans were the modified method of National Committee for Clinical Laboratory Standards (NCCLS) method as described by Galgiani and by the more recent NCCLS M27-A microdilution methods as described previously. Galgiani, J. N. Antimicrob. Agents Chemother. […] Reference method for broth dilution antifungal susceptibility testing for yeasts. Approval standard. […] 9; C. arballeira, N. M., et al. Arch. Pharm.-Pharm. […] Dilutions were prepared in 0.1 ml of RPMI or SDB; the inocula were either 10^4 C. albicans or C. neoformans cells or A. niger spores. The tubes were incubated for 24-48 h at 36±1° C., and turbidity was read visually.

C. albicans ATCC 14053 [2] = test: MIC microdilution susceptibility testing, C. albicans in SDB; assay type: cell-based, Candida albicans; details: 24-48 h, average of three experiments; for MIC: Candida albicans
Description: as §1, §2, §3

C. neoformans ATCC 66031 = test: MIC microdilution susceptibility testing, C. neoformans in SDB; assay type: cell-based, Cryptococcus neoformans; details: SDB medium, 35-37° C., 24-48 h, average of three experiments; for MIC: Cryptococcus neoformans, ATCC66031
Description: as §1, §2, §3

A. niger ATCC 16404 = test: MIC microdilution susceptibility testing, A. niger in SDB; assay type: cell-based, Aspergillus niger; details: SDB medium, 35-37° C., 24-48 h, average of three experiments; for MIC: Aspergillus niger, ATCC16404
Description: as §1, §2, §3

[3] = RPMI medium pH 6.9, 35-37° C., 24-48 h, average of three experiments
[4] = ATCC14053, RPMI medium pH 6.9, 35-37° C., 24-48 h, average of three experiments, read-out: MIC C. albicans ATCC 14053, RPMI
[5] = ATCC14053, pH 5.6, SDB medium pH 5.6, 35-37° C.

Compound	MIC (C. albicans ATCC 14053 [1]; [4])	MIC (C. albicans ATCC 14053 [2]; [5])	MIC (C. neoformans ATCC 66031)	MIC (A. niger ATCC 16404)	MIC C. albicans ATCC 14053, RPMI (C. albicans ATCC 14053 [1]; [3])	MIC C. albicans ATCC 14053, SDB (C. albicans ATCC 14053 [2]; SDB medium pH 5.6, 35-37° C.)	MIC C. neoformans ATCC 66031, SDB (C. neoformans ATCC 66031)	MIC A. niger ATCC 16404, SDB (A. niger ATCC 16404)	MIC (C. albicans ATCC 14053 [1]; ATCC14053, pH 6.9, read-out: MIC C. albicans ATCC 14053, RPMI)	MIC (C. albicans ATCC 14053 [2]; ATCC14053, SDB medium pH 5.6, 35-37° C.)
O=C(OCCCl)OC(Cn1cncn1)(Cn1cncn1)c1ccc(F)cc1F [Compound 1k, O-2-Chloroethyloxycarbonylfluconazole]					977 µg/mL (≈ 2370 µM)	>977 µg/mL	>977 µg/mL	>977 µg/mL		
CCCCC(Br)C(=O)O (centres unmarked) [2-Bromohexanoic acid, reference compound]			355 µg/mL (≈ 1820 µM)	710 µg/mL (≈ 3640 µM)					≥ 710 µg/mL	710 µg/mL (≈ 3640 µM)
CCCCC(Br)C(=O)OC(Cn1cncn1)(Cn1cncn1)c1ccc(F)cc1F (centres unmarked) [Compound 1f, O-2-Bromohexanoylfluconazole]					61 µg/mL (≈ 126 µM)	492 µg/mL (≈ 1020 µM)	492 µg/mL (≈ 1020 µM)	≧979 μg/mL		
CCCC(Br)C(=O)OC(Cn1cncn1)(Cn1cncn1)c1ccc(F)cc1F (centres unmarked) [Compound 1e, O-2-Bromovaleroylfluconazole]					275 µg/mL (≈ 586 µM)	552 µg/mL (≈ 1180 µM)	1,100 μg/mL	≧1,100 μg/mL		
CC(Br)C(=O)Cl (centres unmarked) [2-Bromopropionyl chloride, reference compound]	468 µg/mL	468 µg/mL	117 µg/mL	468 µg/mL						
C[C@@H]1[C@H](O)[C@@H](C)/C=C/C=C/C=C/C=C/C=C/C=C/C=C/[C@H](O[C@@H]2O[C@H](C)[C@@H](O)[C@H](N)[C@@H]2O)C[C@@H]2O[C@](O)(C[C@@H](O)C[C@@H](O)[C@H](O)CC[C@@H](O)C[C@@H](O)CC(=O)O[C@H]1C)C[C@H](O)[C@H]2C(=O)O [AMB, amphotericin B, reference compound]					0.7 µg/mL (≈ 0.758 µM)	1.5 µg/mL (≈ 1.62 µM)		0.4 µg/mL (≈ 0.433 µM)		
CCCCCCCCCCCCC(Br)C(=O)O (centres unmarked) [2-Bromomyristic acid, reference compound]	12 µg/mL (≈ 39.1 µM)	> 540 µg/mL	15 µg/mL (≈ 48.8 µM)	68 µg/mL (≈ 221 µM)						
CC(Br)C(=O)OC(Cn1cncn1)(Cn1cncn1)c1ccc(F)cc1F (centres unmarked) [Compound 1c, O-2-Bromopropionylfluconazole]					656 µg/mL (≈ 1490 µM)	656 µg/mL (≈ 1490 µM)	656 µg/mL (≈ 1490 µM)	>656 µg/mL		

Now from value to molecule, other results behind:

MIC (C. albicans ATCC 14053 [1]; [4])	MIC (C. albicans ATCC 14053 [2]; [5])	MIC (C. neoformans ATCC 66031)	MIC (A. niger ATCC 16404)	Compound	MIC C. albicans ATCC 14053, RPMI (C. albicans ATCC 14053 [1]; [3])	MIC C. albicans ATCC 14053, SDB (C. albicans ATCC 14053 [2]; SDB medium pH 5.6, 35-37° C.)	MIC C. neoformans ATCC 66031, SDB (C. neoformans ATCC 66031)	MIC A. niger ATCC 16404, SDB (A. niger ATCC 16404)	MIC (C. albicans ATCC 14053 [1]; ATCC14053, pH 6.9, read-out: MIC C. albicans ATCC 14053, RPMI)	MIC (C. albicans ATCC 14053 [2]; ATCC14053, SDB medium pH 5.6, 35-37° C.)
> 876 µg/mL	1750 µg/mL (≈ 7660 µM)	> 529 µg/mL	> 529 µg/mL	CCCCCCCCCCCCCC(=O)O [Tetradecanoic acid, reference compound]			>529 µg/mL			
749 µg/mL (≈ 1800 µM)	> 749 µg/mL	47 µg/mL (≈ 113 µM)	749 µg/mL (≈ 1800 µM)	Fc1ccc(C(I)(Cn2cncn2)Cn2cncn2)c(F)c1 [I]						
1140 µg/mL (≈ 3500 µM)	> 883 µg/mL	28 µg/mL (≈ 86.2 µM)	883 µg/mL (≈ 2720 µM)	Fc1ccc(C(Cl)(Cn2cncn2)Cn2cncn2)c(F)c1 [Cl]						
	95 µg/mL (≈ 378 µM)	12 µg/mL (≈ 47.8 µM)	24 µg/mL (≈ 95.5 µM)	OCCCCCCCCCCCBr [11-Bromoundecanol, reference compound]						
≥ 578 µg/mL	578 µg/mL (≈ 3190 µM)	290 µg/mL (≈ 1600 µM)	≥ 578 µg/mL	CCCC(Br)C(=O)O (centres unmarked) [2-Bromovaleric acid, reference compound]						
	1720 µg/mL (≈ 8020 µM)	14 µg/mL (≈ 65.3 µM)	27 µg/mL (≈ 126 µM)	CCCCCCCCCCCCCCO [Tetradecanol, reference compound]						
> 610 µg/mL	> 610 µg/mL	19 µg/mL (≈ 57.4 µM)	610 µg/mL (≈ 1840 µM)	[N-]=[N+]=NC(Cn1cncn1)(Cn1cncn1)c1ccc(F)cc1F [Compound N3]						
	1860 µg/mL (≈ 5780 µM)	339 µg/mL (≈ 1050 µM)	> 3730 µg/mL	Fc1ccc(C(S)(Cn2cncn2)Cn2cncn2)c(F)c1 [SH]						
≥ 220 µg/mL	≥ 220 µg/mL	≥ 220 µg/mL	≥ 220 µg/mL	CC(=O)O [Acetic acid, reference compound]						
